From ChEMBL document CHEMBL1148908, “Biscoumarin derivatives from Edgeworthia gardneri that inhibit the lyase activity of DNA polymerase beta” (J Nat Prod, 2004)
Active and inactive are the calls of the source. No cut-off for these calls is given here.

Tests used:
DNA polymerase beta = DNA polymerase beta (Rattus norvegicus, UniProt P06766); assay: Inhibition of lyase activity of rat DNA polymerase beta after 30 mins
[1] = target: DNA polymerase beta (Rattus norvegicus) (UniProt P06766); assay: Inhibition of rat DNA polymerase beta-mediated DNA polymerization up to 100 ug/mL after 1 hr
A549 [2] = assay: Cytotoxicity against human A549 cells at 6 uM after 48 hrs; type: functional; settings: A549, 48 h
A549 [3] = assay: Cytotoxicity against human A549 cells at 6 uM after 48 hrs in presence of 0.5 uM blenoxane; type: functional
A549 [4] = assay: Cytotoxicity against human A549 cells at 0.5 uM after 48 hrs; type: functional, cell-based

IC50 (DNA polymerase beta)	Activity [1]	Compound	inhibition at 6 µM (A549 [2])	inhibition (INH) (A549 [3])	inhibition (A549 [4])
122 µM	inactive	COc1cc2cc(Oc3ccc4ccc(=O)oc4c3)c(=O)oc2cc1O [DAPHNORETIN]	–	–	–
–	inactive	O=c1ccc2ccc(Oc3cc4ccc(O)cc4oc3=O)cc2o1 [EDGEWORIN]	1.6%	50.7%	–
94.8 µM	inactive	O=c1ccc2ccc(Oc3cc4cc(O)c(O)cc4oc3=O)cc2o1 [EDGEWORTHIN]	–	–	–
–	–	BLEOMYCIN SULFATE	–	–	35.5%
